The term viability denotes a read-out of living cells in per cent, often relative to untreated cells.

The series in a line: in vitro. The settings on record: human, hela cells, % viability.

On to `CN(C)Cc1ccccc1-n1cc(-c2cccnc2)nn1` [CBK113064], for which the viability at 28.5 h, 10 µM stood at 92.5%.
On the same count and under the same terms, the same measure for `CCN1CCc2nc(NC(=O)c3ccc(Cl)cc3)sc2C1` [CBK287644]: 86.3%; for `COc1cc(C(=O)N2CCC3(CC2)NC(=O)c2cc(Br)ccc2O3)ccc1C` [CBK149464]: 92.3%.
The same measure, in the same setting: the result for `CCOc1ccc(-n2c(SCc3nc(-c4ccc(C)cc4)no3)nnc2-c2ccncc2)cc1` [CBK268315] reads 98.3%; that for `O=C(NCc1ccncc1)OCCc1ccncc1` [CBK200133], 108%; that for `c1ccc2[nH]c(CCc3nc4ccccc4[nH]3)nc2c1` [CBK261807], 111%.
Turning to `Cc1cccc(C)c1OCC(=O)Nc1ccccc1C(=O)N1CCOCC1` [CBK270096], the viability at 28.5 h, 10 µM came out at 91.2%.
Same read-out and setting: the result for `O=C(OCc1ccccc1)N1CCC(C2OCc3cc(-c4ccc(C(=O)N5CCCCC5)cc4)ccc3O2)CC1` (stereo not shown) [CBK153262] reads 93.8%.
`N#Cc1ccc(CNC2(Cc3cc(-c4ccc(F)cc4)on3)COC2)cc1` [CBK289653]: the viability at 28.5 h, 10 µM worked out at 87.3%.
As for `N#C/C(=C\c1cccn1-c1ccc(S(N)(=O)=O)cc1)c1nc2ccccc2[nH]1` [CBK266167], the viability at 28.5 h, 10 µM was determined as 103%.
In the case of `COc1ccc(-c2ccc3c(c2)OC2(CCNCC2)O3)c(OC)c1` [CBK091451], under “bulk resorufin, single well”, the viability at 28.5 h, 10 µM worked out at 93.2%.
For `COc1cc(CN2CCN(C3CCCCC3)CC2)cc(OC)c1OC` [CBK263407], the viability at 28.5 h, 10 µM is 99.1%.
Regarding `CC(=O)c1ccc(NC(=O)N(C)c2c(C)nc3ccc(C(=O)N4CCN(C(=O)c5ccco5)CC4)cn23)cc1` [CBK146930], the viability at 28.5 h, 10 µM stood at 92.8%.
Same read-out and setting: the same measure for `COc1cc(NC(=O)Cn2nc([N+](=O)[O-])c(Cl)c2C)c(OC)cc1Cl` [CBK033535]: 97.9%.
Same read-out and setting: the result for `O=C(CSc1nnc(-c2ccccc2)n1-c1ccc(Cl)cc1)NCc1ccco1` [CBK266637] reads 99.2%; that for `O=C(Nc1ccc(N2CCN(C(=O)c3ccco3)CC2)cc1)c1cccnc1` [CBK270034], 102%.
As to `CC(=O)NC1CCN(c2nc(C(C)(C)C)nc3c2cnn3C)CC1` [CBK307431], the viability at 28.5 h, 10 µM was 101%.
In the case of `COc1ccc(Oc2cncc(OC3CCN(CC4CCCCC4)C3)n2)cc1OC` (stereo not shown) [CBK084413], the viability at 28.5 h, 10 µM is 96.4%.
On the same count and under the same terms, the same measure for `Cc1ccnc(NCC2CCN(c3cc(=O)n4oc(C)cc4n3)C2)c1` (stereo not shown) [CBK305191]: 84.6%.
Turning to `COc1ccccc1-c1cnc(N)c(N2CCC(C(=O)O)CC2)n1` [CBK064082], the viability at 28.5 h, 10 µM was found to be 96.1%.
Still for that read-out and setting: the same measure for `CCCCNc1nnc(-c2cc(C)nn2C)s1` [CBK288019]: 91.5%; for `CCC(CC)Cn1c(-c2cccnc2)nc2cc(S(=O)(=O)NCCO)ccc21` [CBK003450]: 91%; for `COc1ccc(CN2CCN(Cc3ccco3)CC2)cc1OCc1ccccc1` [CBK264225]: 105%.
Turning to `CCN(CC(=O)N1CCN(C(=O)c2ccc(C)cc2)CC1)C(=O)OC` [CBK027051], the viability at 28.5 h, 10 µM came to 82%.
The same measure, in the same setting: the same measure for `CC[C@H](C)[C@H](NC(=O)C1CCN(S(=O)(=O)c2ccc(Cl)c(C(F)(F)F)c2)CC1)C(=O)O` [CBK297117]: 91.5%; for `O=C(CSc1nncc(=O)[nH]1)NCc1ccccc1` [CBK270246]: 85.3%; for `N=C1OC2CSCC2N1C(=O)C1(c2ccccc2)CC1` (stereo not shown) [CBK284524]: 106%.
With `COc1cccc(CC(=O)Nc2ncccc2OCCCC#N)c1` [CBK304961], the viability at 28.5 h, 10 µM came out at 88%.
The same measure, in the same setting: the result for `CC(C)(C)c1ccc(-c2cnc(N)c(-c3ccc(C(=O)N4CCOCC4)cc3)n2)cc1` [CBK084543A] reads 98.2%; that for `CC(=O)Nc1cccc(-n2cnnc2SCC2CCOCC2)c1` [CBK306354], 92%; that for `CN1CCC(N2CC[C@@H]3[C@H]2C(=O)NC[C@H](CCC(=O)NCc2ccccc2)N3C)CC1` [CBK289026], 114%.
With `O=C(Nc1nccs1)c1cc(=O)c2ccccc2o1` [CBK287570], the viability at 28.5 h, 10 µM stood at 105%.
Still for that read-out and setting: the same measure for `CN(C(=O)C1(C)CCOCC1)c1nc2c(s1)CC(c1ccccc1)CC2` (stereo not shown) [CBK305531]: 82.8%.
`COc1ccc(-c2nc(NS(C)(=O)=O)cc3cccnc23)cc1C` [CBK085677]: the viability at 28.5 h, 10 µM was found to be 85.5%.
For `CN(C)CCCOC(=O)C(C)(c1ccccc1)c1ccccc1` [CBK265325C], the viability at 28.5 h, 10 µM turned out to be 118%.
Still for that read-out and setting: the same measure for `CCOC(=O)N1CCN(S(=O)(=O)c2coc(C)c2C(=O)OC)CC1` [CBK057079]: 94.7%; for `O=C(O)c1cc(C=Cc2ccc(Cl)c([N+](=O)[O-])c2)nc2ccccc12` [CBK297495]: 104%; for `CCC(NC(=O)Nc1ccc(N2CCOCC2)nc1)c1cnn(CC)c1` (stereo not shown) [CBK305172]: 90.6%.
Take `O=C1CC(c2ccc3c(c2)OCO3)c2ccc3ccccc3c2N1` (stereo not shown) [CBK087469]: the viability at 28.5 h, 10 µM was 95.8%.
Consider `Cn1c(=O)c2c(=S)[nH]c(-c3ccccc3)nc2n(C)c1=O` [CBK288422], for which the viability at 28.5 h, 10 µM came out at 103%.
Take `COCOc1ccc(-c2ncc(OC)nc2NC(=O)COC)cc1` [CBK145216]: the viability at 28.5 h, 10 µM is 92.7%.
Take `NC[C@H]1CC[C@H](C(=O)NCC2CCCN(Cc3ccccc3)C2)CC1` (stereo partly shown) [CBK282764]: the viability at 28.5 h, 10 µM was 89.6%.
The same measure, in the same setting: the same measure for `CC(C)(C)c1ccc(O)c(NC(=S)NC(=O)c2cccc(OCc3ccccc3)c2)c1` [CBK269018]: 97.3%; for `CC(CCCC(C)(C)O)NS(=O)(=O)c1ccc(-c2ccon2)s1` (stereo not shown) [CBK062466]: 93.8%.
The same measure, in the same setting: the result for `COc1ccc(C(=O)N2CCCN(Cc3ccc(C#N)cc3)CC2)cc1` [CBK305374] reads 94.7%; that for `COc1cc(OC)nc(CN2C(=O)CC3(C2=O)C(=O)N(CCCN(C)C(=O)c2ccco2)c2ccc(F)cc23)n1` (stereo not shown) [CBK076006], 85.6%.
As for `O=C(OCCc1ccncc1)N1Cc2ccccc2C1` [CBK200141], the viability at 28.5 h, 10 µM was 95.5%.
For the compound `COC(=O)[C@H]1CN(C(=O)c2ccccn2)C[C@@H]1c1ccc(F)cc1` [CBK283727], the viability at 28.5 h, 10 µM was found to be 101%.
Same read-out and setting: the same measure for `Cc1ccc(-n2c(SCC(=O)NCc3ccccc3)nnc2-c2ccc(Cl)cc2)cc1C` [CBK265909]: 97.9%; for `CN1CCN(CCCNC(=O)N2CCN(Cc3ccccc3)CC2)CC1` [CBK155621]: 91.3%; for `CCC(CC)NS(=O)(=O)c1cccc(C(=O)O)c1` [CBK287225]: 88.3%.
As to `Cc1ccccc1C(=O)NCC(=O)Nc1ccc(Br)c2ccccc12` [CBK091343], the viability at 28.5 h, 10 µM stood at 98%.
`Cc1c(C(=O)N2CCN(C3CC3)CC2)nnn1Cc1ccc(F)cc1F` [CBK305507]: the viability at 28.5 h, 10 µM was found to be 97.1%.
Regarding `COc1cc(Nc2cncc(-c3cccs3)n2)cc(OC)c1OC` [CBK065663], the viability at 28.5 h, 10 µM turned out to be 80.4%.
For the compound `COc1ccc2c(c1)C=C(/C=C/C1=CCN(C)CC1)CO2` [CBK283818], the viability at 28.5 h, 10 µM turned out to be 81.1%.
Same read-out and setting: the same measure for `C=CCNC(=O)C1CCN(c2nc3ccccc3n2CC)CC1` [CBK283920]: 113%.
Still for that read-out and setting: the result for `O=C(Nc1cccc([N+](=O)[O-])c1)c1cc(S(=O)(=O)N2CCCCC2)ccc1Cl` [CBK261367] reads 93.9%; that for `COc1cccc(-c2cc3c(=S)[nH]ccn3n2)c1` [CBK288437], 88%; that for `Brc1ccc(-n2c(SC/C=C/c3ccccc3)nnc2-c2ccncc2)cc1` [CBK266257], 105%.
On to `Cc1ccc(Cl)cc1-n1cc(-c2ccc(F)cc2F)nn1` [CBK112995], for which the viability at 28.5 h, 10 µM is 89.2%.
For the compound `Cc1ccc(C2c3c(O)n[nH]c3CC(C)(O)C2C(=O)OCc2ccccc2)cc1` (stereo not shown) [CBK269417], the viability at 28.5 h, 10 µM came to 92.8%.
On the same count and under the same terms, the same measure for `OC(CNCc1cccs1)c1ccccc1` (stereo not shown) [CBK057092]: 90.8%; for `COc1ccc(Nc2cc(-n3nc(C)cc3-c3ccccc3)ncn2)cc1` [CBK293925]: 104%.
In the case of `COC(=O)c1ccc(N2C(=O)CC(SCCc3nc4ccccc4[nH]3)C2=O)cc1` (stereo not shown) [CBK267188], the viability at 28.5 h, 10 µM was determined as 88.5%.
The same measure, in the same setting: the same measure for `O=C(CCc1nc2ccccc2[nH]1)Nc1ccc(F)cc1` [CBK267238]: 95.5%.
On the same count and under the same terms, the same measure for `Cc1noc(-c2cn(C)nc2C2CCCCN2CC2CC2)c1C` (stereo not shown) [CBK283408]: 88.1%; for `CC(=O)N1CCCc2cc(NC(=O)NCCc3cnn(C)c3)ccc21` [CBK304937]: 88.7%.
On the same count and under the same terms, the same measure for `Cc1cc(CN2CCN(c3nc(-c4ccccc4)nc4ccccc34)CC2)no1` [CBK296654]: 87.7%; for `CCCc1nnc2sc(C3CCC(=O)N(CC(C)C)C3)nn12` (stereo not shown) [CBK307207]: 95.6%; for `Cc1cc(C)nc(Nc2nc3ccccc3[nH]2)n1` [CBK263539]: 102%.
With `CN(C(=O)C1CCCO1)c1nc2c(s1)CCc1occc1-2` (stereo not shown) [CBK283483], the viability at 28.5 h, 10 µM came out at 88.8%.
For the compound `N#Cc1ccc(-c2cccs2)nc1SCC(=O)Nc1ccc([N+](=O)[O-])cc1` [CBK066850], the viability at 28.5 h, 10 µM turned out to be 87.5%.
Regarding `O=C(CN1CCN(c2nc3cc(Cl)ccc3s2)CC1)c1ccc2c(c1)OCCCO2` [CBK074737], the viability at 28.5 h, 10 µM turned out to be 96.6%.
For the compound `Cc1nc(C)n(CC2CCCN(Cc3nc4c(F)cccc4[nH]3)C2)n1` (stereo not shown) [CBK306218], the viability at 28.5 h, 10 µM was determined as 110%.
On to `CCN(CC)CCN(C(=O)NCCCSC)C(C)c1ccc(OC)c(OC)c1` (stereo not shown) [CBK158803], for which the viability at 28.5 h, 10 µM stood at 94.3%.
Turning to `CC(NC(=O)CCCC(=O)c1cccs1)c1cccc2ccccc12` (stereo not shown) [CBK297748], the viability at 28.5 h, 10 µM came to 105%.
Still for that read-out and setting: the same measure for `O=C(Cc1ccccc1Oc1ccccc1)Nc1cnc(-c2ccc(F)cc2)c(-c2ccco2)n1` [CBK037194]: 92.6%; for `Cc1cccc(OCc2nnc(SCC(=O)Nc3cccc4ccccc34)o2)c1C` [CBK267153]: 108%.
On the same count and under the same terms, the result for `CC(NC(=O)C1C2CCC(CC2)C1C(=O)O)c1ccncc1` (stereo not shown) [CBK287061] reads 102%.

For the origin of these results see publication PMC12040169 (PLOS Biology, 2025).
